Experimental data: article PMC9601927 (Foods, 2022)

How the values were obtained:
[1] = tested on: GLUT2; test: siRNA-mediated knockdown of GLUT2 in Caco-2 cells (RT-PCR, Western blot); format: cell-based; details: 72 h post-transfection
Method: (§1) To examine the effect of sGLT1 and GLUT2 on ANC transmembrane transport in more detail, the Caco-2 cells were transfected with siRNA targeted to sGLT1 and GLUT2 (sGLT1 siRNA-1, sGLT1 siRNA-2, sGLT1 siRNA-3, GLUT2 siRNA-1, GLUT2 siRNA-2, and GLUT2 siRNA-3) to knockdown their expression on day 18 after differentiation. The specific experimental operation was carried out according to the literature. NC siRNA was used as a negative control. The siRNA oligos and all transfection reagents were provided by Hippobio (Huzhou, China). Western blotting and real-time PCR (RT-PCR) analyses were performed to check the sGLT1 and GLUT2 expression levels after 72 h post-transfection.
(§2) According to the manufacturer’s instructions, the MiniBEST Universal RNA Extraction Kit was used to isolate the total RNA from Caco-2 cells. Table 2 lists the three specific primers. GAPDH served as an internal control. […] The 2^−ΔΔCt method was adopted to calculate the relative quantification of the target gene.
(§3) Firstly, the cells were washed twice with 1 mL of cold PBS and then lysed in 100 μL of ice-cold RIPA lysis buffer. […] Finally, the expressions of sGLT1 and GLUT2 were detected using a Western blot assay.

[2] = tested on: sGLT1; test: siRNA-mediated knockdown of sGLT1 in Caco-2 cells (RT-PCR, Western blot); format: cell-based; details: 72 h post-transfection
Method: as §1, §2, §3

GLUT2 siRNA-2: siRNA targeted to GLUT2: CGGGCATTCTTATTAGTCATT TGACTAATAAGAATGCCCGTT (CGGGCATTCTTATTAGTCATTTGACTAATAAGAATGCCCGTT; chemistry not given here)
reduction of GLUT2 mRNA levels (RT-PCR) [1]: 75% | silencing of GLUT2 (Western blot) after siRNA transfection [1]: most effective segment

sGLT1 siRNA-3: siRNA targeted to sGLT1: GGAGCGTATTGACCTGGATTT ATCCAGGTCAATACGCTCCTT (GGAGCGTATTGACCTGGATTTATCCAGGTCAATACGCTCCTT; chemistry not given here)
expression of sGLT1 (Western blot) after siRNA transfection [2]: significantly reduced | reduction of sGLT1 mRNA levels (RT-PCR) [2]: 85%
